Consider 27 compounds from patent US20110009381A1, “SOLUBILIZED THIAZOLOPYRIDINES” (Sirtis Pharmaceuticals, Inc., priority 2007, published 2011).

The experiment addresses T1, SIRT1 (Homo sapiens, UniProt Q96EB6).
T1 sequence (Q96EB6 1-747): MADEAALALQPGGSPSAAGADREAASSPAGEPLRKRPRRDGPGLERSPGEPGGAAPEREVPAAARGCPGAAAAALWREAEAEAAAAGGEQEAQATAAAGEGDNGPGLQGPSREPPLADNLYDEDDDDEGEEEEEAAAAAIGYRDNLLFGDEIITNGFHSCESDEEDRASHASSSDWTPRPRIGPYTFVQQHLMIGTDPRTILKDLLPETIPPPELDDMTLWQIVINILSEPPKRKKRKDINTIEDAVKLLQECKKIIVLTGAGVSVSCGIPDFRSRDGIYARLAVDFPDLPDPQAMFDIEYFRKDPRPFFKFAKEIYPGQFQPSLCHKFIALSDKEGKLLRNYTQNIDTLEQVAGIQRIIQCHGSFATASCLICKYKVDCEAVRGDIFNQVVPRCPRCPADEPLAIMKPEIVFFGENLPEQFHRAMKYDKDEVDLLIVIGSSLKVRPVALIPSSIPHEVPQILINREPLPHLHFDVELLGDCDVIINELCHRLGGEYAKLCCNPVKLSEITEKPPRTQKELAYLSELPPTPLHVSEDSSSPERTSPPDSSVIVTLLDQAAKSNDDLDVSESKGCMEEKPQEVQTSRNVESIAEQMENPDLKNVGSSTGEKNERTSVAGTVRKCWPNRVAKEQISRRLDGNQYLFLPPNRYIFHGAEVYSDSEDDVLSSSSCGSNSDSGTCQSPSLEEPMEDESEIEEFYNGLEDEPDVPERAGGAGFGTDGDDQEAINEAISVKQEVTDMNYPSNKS
Briefly: Mass spectrometry based assay to identify modulators of SIRT1 activity (deacetylation of p53-based acetylated peptide substrate). Type of experiment: biochemical. The conditions noted are these: 10 nM SIRT1, 0.5 μM peptide substrate, 120 μM βNAD+, 25 minutes at 25° C.; for EC1.5: SIRT1 activation. The text has this:
A mass spectrometry based assay was used to identify modulators of SIRT1 activity. The mass spectrometry based assay utilizes a peptide having 20 amino acid residues as follows: Ac-EE-K(biotin)-GQSTSSHSK(Ac)NleSTEG-K(5TMR)-EE-NH2 (SEQ ID NO: 1) wherein K(Ac) is an acetylated lysine residue and Nle is a norleucine. The peptide is labeled with the fluorophore 5TMR (excitation 540 nm/emission 580 nm) at the C-terminus. The sequence of the peptide substrate is based on p53 with several modifications. In addition, the methionine residue naturally present in the sequence was replaced with the norleucine because the methionine may be susceptible to oxidation during synthesis and purification.
The mass spectrometry assay is conducted as follows: 0.5 μM peptide substrate and 120 μM βNAD^+ is incubated with 10 nM SIRT1 for 25 minutes at 25° C. in a reaction buffer (50 mM Tris-acetate pH 8, 137 mM NaCl, 2.7 mM KCl, 1 mM MgCl2, 5 mM DTT, 0.05% BSA). Test compounds may be added to the reaction as described above. The SirT1 gene is cloned into a T7-promoter containing vector and transformed into BL21(DE3). After the 25 minute incubation with SIRT1, 10 μL of 10% formic acid is added to stop the reaction. Reactions are sealed and frozen for later mass spec analysis. Determination of the mass of the substrate peptide allows for precise determination of the degree of acetylation (i.e. starting material) as compared to deacetylated peptide (product).
A control for inhibition of sirtuin activity is conducted by adding 1 μL of 500 mM nicotinamide as a negative control at the start of the reaction (e.g., permits determination of maximum sirtuin inhibition). A control for activation of sirtuin activity is conducted using 10 nM of sirtuin protein, with 1 μL of DMSO in place of compound, to determine the amount of deacetylation of the substrate at a given timepoint within the linear range of the assay. This timepoint is the same as that used for test compounds and, within the linear range, the endpoint represents a change in velocity.
For the above assay, SIRT1 protein was expressed and purified as follows. The SirT1 gene was cloned into a T7-promoter containing vector and transformed into BL21(DE3). The protein was expressed by induction with 1 mM IPTG as an N-terminal His-tag fusion protein at 18° C. overnight and harvested at 30,000×g. Cells were lysed with lysozyme in lysis buffer (50 mM Tris-HCl, 2 mM Tris[2-carboxyethyl]phosphine (TCEP), 10 μM ZnCl2, 200 mM NaCl) and further treated with sonication for 10 min for complete lysis. The protein was purified over a Ni-NTA column (Amersham) and fractions containing pure protein were pooled, concentrated and run over a sizing column (Sephadex S200 26/60 global). The peak containing soluble protein was collected and run on an Ion-exchange column (MonoQ). Gradient elution (200 mM-500 mM NaCl) yielded pure protein. This protein was concentrated and dialyzed against dialysis buffer (20 mM Tris-HCl, 2 mM TCEP) overnight. The protein was aliquoted and frozen at −80° C. until further use.
Sirtuin modulating compounds that activated SIRT1 were identified using the assay described above and are shown below in Table 1. The EC1-5 values for the activating compounds are represented by A′ (EC1.5<250 nM), A (EC1.5≧250 nM and ≦1 uM), B (EC1.5>1 and ≦10 uM), or C (EC1.5>10 uM). The percent maximum fold activation is represented by A (Fold activation≧300%), B (Fold Activation≧150% and <300%), or C (Fold Activation<150%).

Regarding `O=C(Nc1ccccc1-c1nc2ccncc2s1)c1cc(NCc2ccccn2)nc(-c2ccccc2)n1` [Compound 57], the “FOLD ACT. (percent maximum fold activation)” value is “A (Fold activation≧300%)”; the EC1.5 entry is “A (EC1.5≧250 nM and ≦1 uM)”.
Turning to `CS(=O)(=O)NCCOc1cc(C(=O)Nc2ccccc2-c2nc3cccnc3s2)nc(-c2ccccc2)n1` [Compound 122], the “FOLD ACT. (percent maximum fold activation)” value is “B (Fold Activation≧150% and <300%)”; the EC1.5 entry was “A (EC1.5≧250 nM and ≦1 uM)”.
Consider `O=C(Nc1ccccc1-c1nc2cccnc2s1)c1cc(NCC2CCNCC2)nc(-c2ccccc2)n1` [Compound 82], for which the “FOLD ACT. (percent maximum fold activation)” value is given as “A (Fold activation≧300%)” and the EC1.5 result is given as “A′ (EC1.5<250 nM)”.
Taken in the same sequence, the figures for `COCCNc1cc(C(=O)Nc2ccccc2-c2nc3cccnc3s2)nc(-c2ccccc2)c1` [Compound 131] were “A (Fold activation≧300%)” and “A′ (EC1.5<250 nM)”.
For `CCN(CC)CCCNc1cc(C(=O)Nc2ccccc2-c2nc3cccnc3s2)nc(-c2ccccc2)n1` [Compound 81], in that order: “A (Fold activation≧300%)” and “A′ (EC1.5<250 nM)”.
Taken in the same sequence, the figures for `COCCN(C)c1cc(C(=O)Nc2ccccc2-c2nc3cccnc3s2)nc(-c2ccccc2)c1` [Compound 137] were “A (Fold activation≧300%)” and “A′ (EC1.5<250 nM)”.
For the compound `COCCNc1cc(C(=O)Nc2ccccc2-c2nc3cccnc3s2)nc(-c2ccccc2)n1` [Compound 15], the “FOLD ACT. (percent maximum fold activation)” value is listed as “A (Fold activation≧300%)”; the EC1.5 result was “A (EC1.5≧250 nM and ≦1 uM)”.
Consider `NCCNc1cc(C(=O)Nc2ccccc2-c2nc3cccnc3s2)nc(-c2ccccc2)n1` [Compound 83], for which the “FOLD ACT. (percent maximum fold activation)” value is given as “A (Fold activation≧300%)”; the EC1.5 result was “A (EC1.5≧250 nM and ≦1 uM)”.
`O=C(Nc1ccccc1-c1nc2cccnc2s1)c1cc(NC2CCCCC2)nc(-c2ccccc2)n1` [Compound 63]: the “FOLD ACT. (percent maximum fold activation)” value is listed as “C (Fold Activation<150%)” and the EC1.5 result is “C (EC1.5>10 uM)”.
As for `COCCN1CCN(c2cc(C(=O)Nc3ccccc3-c3nc4cccnc4s3)nc(-c3ccccc3)n2)CC1` [Compound 3], the “FOLD ACT. (percent maximum fold activation)” value is listed as “A (Fold activation≧300%)” and the EC1.5 entry is reported as “A′ (EC1.5<250 nM)”.
`O=C(Nc1ccccc1-c1nc2cccnc2s1)c1cc(OCCCO)nc(-c2ccccc2)n1` [Compound 102]: the “FOLD ACT. (percent maximum fold activation)” value was “B (Fold Activation≧150% and <300%)”; the EC1.5 entry is “A (EC1.5≧250 nM and ≦1 uM)”.
Regarding `Cc1ccc(-c2nc(NCCN(C)C)cc(C(=O)Nc3ccccc3-c3nc4cccnc4s3)n2)cc1` [Compound 111], the “FOLD ACT. (percent maximum fold activation)” value was “A (Fold activation≧300%)” and the EC1.5 result was “A′ (EC1.5<250 nM)”.
Consider `O=C(Nc1ccccc1-c1nc2cccnc2s1)c1cc(O)cc(-c2ccccc2)n1` [Compound 34], for which the “FOLD ACT. (percent maximum fold activation)” value is reported as “A (Fold activation≧300%)”; the EC1.5 result was “A (EC1.5≧250 nM and ≦1 uM)”.
As to `Cl.O=C(Nc1ccccc1-c1nc2cccnc2s1)c1cc(NCCN2CCCC2)nc(-c2ccccc2)n1` [Compound 62], the “FOLD ACT. (percent maximum fold activation)” value is on record as “A (Fold activation≧300%)” and the EC1.5 result is reported as “A′ (EC1.5<250 nM)”.
With `COC(=O)CNc1cc(C(=O)Nc2ccccc2-c2nc3cccnc3s2)nc(-c2ccccc2)n1` [Compound 17], the “FOLD ACT. (percent maximum fold activation)” value is reported as “A (Fold activation≧300%)”; the EC1.5 result is “A (EC1.5≧250 nM and ≦1 uM)”.
Regarding `CNCCNc1cc(C(=O)Nc2ccccc2-c2nc3cccnc3s2)nc(-c2ccccc2)n1` [Compound 121], the “FOLD ACT. (percent maximum fold activation)” value is given as “A (Fold activation≧300%)” and the EC1.5 result is “A′ (EC1.5<250 nM)”.
For `O=C(Nc1ccccc1-c1nc2cccnc2s1)c1cc(NCCNc2ccccc2)nc(-c2ccccc2)n1` [Compound 60], in that order: “C (Fold Activation<150%)” and “C (EC1.5>10 uM)”.
Taken in the same sequence, the figures for `O=C(Nc1ccccc1-c1nc2cccnc2s1)c1cc(NCCCO)nc(-c2ccccc2)n1` [Compound 40] were “A (Fold activation≧300%)” and “A′ (EC1.5<250 nM)”.
Regarding `CC1(C)OCC(CNc2cc(C(=O)Nc3ccccc3-c3nc4cccnc4s3)nc(-c3ccccc3)n2)O1` (stereo not drawn) [Compound 96], the “FOLD ACT. (percent maximum fold activation)” value was “A (Fold activation≧300%)”; the EC1.5 result was “A (EC1.5≧250 nM and ≦1 uM)”.
Take `O=C(Nc1ccccc1-c1nc2cccnc2s1)c1cc(NC(CO)CO)nc(-c2ccccc2)n1` [Compound 69]: the “FOLD ACT. (percent maximum fold activation)” value is “A (Fold activation≧300%)” and the EC1.5 entry is reported as “A′ (EC1.5<250 nM)”.
For `Cc1cccc(-c2nc(NC(CO)CO)cc(C(=O)Nc3ccccc3-c3nc4cccnc4s3)n2)c1` [Compound 134], in that order: “A (Fold activation≧300%)” and “A′ (EC1.5<250 nM)”.
Taken in the same sequence, the figures for `O=C(Nc1ccccc1-c1nc2cccnc2s1)c1cc(NC(CO)CO)cc(-c2ccccc2)n1` [Compound 128] were “A (Fold activation≧300%)” and “A′ (EC1.5<250 nM)”.
`O=C(Nc1ccccc1-c1nc2cccnc2s1)c1ccc(CN2CCOCC2)c(-c2ccccc2)n1` [Compound 77]: the “FOLD ACT. (percent maximum fold activation)” value was “B (Fold Activation≧150% and <300%)”; the EC1.5 entry is “A (EC1.5≧250 nM and ≦1 uM)”.
For the compound `CN(C)CCNc1cc(C(=O)Nc2ccccc2-c2nc3cccnc3s2)ncn1` [Compound 26], the “FOLD ACT. (percent maximum fold activation)” value was “A (Fold activation≧300%)”; the EC1.5 entry is “B (EC1.5>1 and ≦10 uM)”.
On to `O=C(Nc1ccccc1-c1nc2cccnc2s1)c1cc(N2CCOCC2)cc(-c2ccccc2)n1` [Compound 129], for which the “FOLD ACT. (percent maximum fold activation)” value is reported as “A (Fold activation≧300%)” and the EC1.5 result is “A′ (EC1.5<250 nM)”.
In the case of `C[C@@H]1CN(c2cc(C(=O)Nc3ccccc3-c3nc4cccnc4s3)nc(-c3ccccc3)n2)C[C@H](C)O1` [Compound 70], the “FOLD ACT. (percent maximum fold activation)” value is “B (Fold Activation≧150% and <300%)”; the EC1.5 result is “A (EC1.5≧250 nM and ≦1 uM)”.
Regarding `O=C(Nc1ccccc1-c1nc2cccnc2s1)c1cc(C#CCO)nc(-c2ccccc2)n1` [Compound 79], the “FOLD ACT. (percent maximum fold activation)” value is “C (Fold Activation<150%)” and the EC1.5 result is “C (EC1.5>10 uM)”.
